{
  "source": "ChEMBL document CHEMBL4371049",
  "about": "“Semi-synthesis and anti-tumor activity of novel 25-OCH3-PPD derivatives incorporating aromatic moiety” (Bioorg Med Chem Lett, 2019)",
  "type_in_all_cases": "functional, cell-based",
  "key": {"HepG2": {"test_system": "HepG2", "assay": "Antiproliferative activity against human HepG2 cells after 48 hrs by MTT assay", "conditions": "HepG2, 48 h"}, "DU-145": {"test_system": "DU-145", "assay": "Antiproliferative activity against human DU145 cells after 48 hrs by MTT assay", "conditions": "DU-145, 48 h"}, "BGC-823": {"test_system": "BGC-823", "assay": "Antiproliferative activity against human BGC823 cells after 48 hrs by MTT assay", "conditions": "BGC-823, 48 h"}, "PC-3": {"test_system": "PC-3", "assay": "Antiproliferative activity against human PC3 cells after 48 hrs by MTT assay", "conditions": "PC-3, 48 h"}, "MCF7": {"test_system": "MCF7", "assay": "Antiproliferative activity against human MCF7 cells after 48 hrs by MTT assay", "conditions": "MCF7, 48 h"}},
  "data": [
    {"smiles": "COC(C)(C)CCC[C@@](C)(O)[C@H]1CC[C@]2(C)[C@@H]1[C@H](O)C[C@@H]1[C@@]3(C)CC[C@H](O)C(C)(C)[C@@H]3CC[C@]12C", "values": [
      {"measurement": "IC50", "setting": "HepG2", "result": 35.9, "unit": "µM"},
      {"measurement": "IC50", "setting": "DU-145", "result": 40.7, "unit": "µM"},
      {"measurement": "IC50", "setting": "BGC-823", "result": 36, "unit": "µM"},
      {"measurement": "IC50", "setting": "PC-3", "result": 39.5, "unit": "µM"},
      {"measurement": "IC50", "setting": "MCF7", "result": 31.3, "unit": "µM"}
    ]},
    {"smiles": "COC(C)(C)CCC[C@@](C)(O)[C@H]1CC[C@]2(C)[C@@H]1[C@H](O)C[C@@H]1[C@@]3(C)CC[C@H](OC(=O)c4ccccc4C)C(C)(C)[C@@H]3CC[C@]12C", "values": [
      {"measurement": "IC50", "setting": "HepG2", "result": "> 50", "unit": "µM"},
      {"measurement": "IC50", "setting": "DU-145", "result": 44.3, "unit": "µM"},
      {"measurement": "IC50", "setting": "BGC-823", "result": "> 50", "unit": "µM"},
      {"measurement": "IC50", "setting": "PC-3", "result": "> 50", "unit": "µM"},
      {"measurement": "IC50", "setting": "MCF7", "result": 37.6, "unit": "µM"}
    ]},
    {"smiles": "COC(C)(C)CCC[C@@](C)(O)[C@H]1CC[C@]2(C)[C@@H]1[C@H](OC(=O)c1cc(C)cc(C)c1)C[C@@H]1[C@@]3(C)CC[C@H](OC(=O)c4cc(C)cc(C)c4)C(C)(C)[C@@H]3CC[C@]12C", "values": [
      {"measurement": "IC50", "setting": "HepG2", "result": "> 50", "unit": "µM"},
      {"measurement": "IC50", "setting": "DU-145", "result": "> 50", "unit": "µM"},
      {"measurement": "IC50", "setting": "BGC-823", "result": "> 50", "unit": "µM"},
      {"measurement": "IC50", "setting": "PC-3", "result": "> 50", "unit": "µM"},
      {"measurement": "IC50", "setting": "MCF7", "result": "> 50", "unit": "µM"}
    ]},
    {"smiles": "COC(C)(C)CCC[C@@](C)(O)[C@H]1CC[C@]2(C)[C@@H]1[C@H](O)C[C@@H]1[C@@]3(C)CC[C@H](OC(=O)c4ccc(Cl)cc4)C(C)(C)[C@@H]3CC[C@]12C", "values": [
      {"measurement": "IC50", "setting": "HepG2", "result": 25.7, "unit": "µM"},
      {"measurement": "IC50", "setting": "DU-145", "result": 20.5, "unit": "µM"},
      {"measurement": "IC50", "setting": "BGC-823", "result": 26.4, "unit": "µM"},
      {"measurement": "IC50", "setting": "PC-3", "result": 28.3, "unit": "µM"},
      {"measurement": "IC50", "setting": "MCF7", "result": 19, "unit": "µM"}
    ]},
    {"smiles": "COC(C)(C)CCC[C@@](C)(O)[C@H]1CC[C@]2(C)[C@@H]1[C@H](O)C[C@@H]1[C@@]3(C)CC[C@H](OC(=O)c4ccc(F)cc4)C(C)(C)[C@@H]3CC[C@]12C", "values": [
      {"measurement": "IC50", "setting": "HepG2", "result": 8.5, "unit": "µM"},
      {"measurement": "IC50", "setting": "DU-145", "result": 13.8, "unit": "µM"},
      {"measurement": "IC50", "setting": "BGC-823", "result": 12.7, "unit": "µM"},
      {"measurement": "IC50", "setting": "PC-3", "result": 15, "unit": "µM"},
      {"measurement": "IC50", "setting": "MCF7", "result": 9.4, "unit": "µM"}
    ]},
    {"smiles": "COC(C)(C)CCC[C@@](C)(O)[C@H]1CC[C@]2(C)[C@@H]1[C@H](O)C[C@@H]1[C@@]3(C)CC[C@H](OC(=O)c4ccccc4)C(C)(C)[C@@H]3CC[C@]12C", "values": [
      {"measurement": "IC50", "setting": "HepG2", "result": 17.8, "unit": "µM"},
      {"measurement": "IC50", "setting": "DU-145", "result": 23.5, "unit": "µM"},
      {"measurement": "IC50", "setting": "BGC-823", "result": 35.1, "unit": "µM"},
      {"measurement": "IC50", "setting": "PC-3", "result": 30.4, "unit": "µM"},
      {"measurement": "IC50", "setting": "MCF7", "result": 18.9, "unit": "µM"}
    ]},
    {"smiles": "COC(C)(C)CCC[C@@](C)(O)[C@H]1CC[C@]2(C)[C@@H]1[C@H](OC(=O)c1ccc(Br)cc1)C[C@@H]1[C@@]3(C)CC[C@H](O)C(C)(C)[C@@H]3CC[C@]12C", "values": [
      {"measurement": "IC50", "setting": "HepG2", "result": "> 50", "unit": "µM"},
      {"measurement": "IC50", "setting": "DU-145", "result": "> 50", "unit": "µM"},
      {"measurement": "IC50", "setting": "BGC-823", "result": "> 50", "unit": "µM"},
      {"measurement": "IC50", "setting": "PC-3", "result": "> 50", "unit": "µM"},
      {"measurement": "IC50", "setting": "MCF7", "result": "> 50", "unit": "µM"}
    ]},
    {"smiles": "COC(C)(C)CCC[C@@](C)(O)[C@H]1CC[C@]2(C)[C@@H]1[C@H](O)C[C@@H]1[C@@]3(C)CC[C@H](OC(=O)c4ccc(Br)cc4)C(C)(C)[C@@H]3CC[C@]12C", "values": [
      {"measurement": "IC50", "setting": "HepG2", "result": 25.7, "unit": "µM"},
      {"measurement": "IC50", "setting": "DU-145", "result": 23.1, "unit": "µM"},
      {"measurement": "IC50", "setting": "BGC-823", "result": 26.2, "unit": "µM"},
      {"measurement": "IC50", "setting": "PC-3", "result": 35.7, "unit": "µM"},
      {"measurement": "IC50", "setting": "MCF7", "result": 17.6, "unit": "µM"}
    ]},
    {"smiles": "COC(C)(C)CCC[C@@](C)(O)[C@H]1CC[C@]2(C)[C@@H]1[C@H](OC(=O)c1ccc(I)cc1)C[C@@H]1[C@@]3(C)CC[C@H](OC(=O)c4ccc(I)cc4)C(C)(C)[C@@H]3CC[C@]12C", "values": [
      {"measurement": "IC50", "setting": "HepG2", "result": "> 50", "unit": "µM"},
      {"measurement": "IC50", "setting": "DU-145", "result": "> 50", "unit": "µM"},
      {"measurement": "IC50", "setting": "BGC-823", "result": "> 50", "unit": "µM"},
      {"measurement": "IC50", "setting": "PC-3", "result": "> 50", "unit": "µM"},
      {"measurement": "IC50", "setting": "MCF7", "result": "> 50", "unit": "µM"}
    ]},
    {"smiles": "COC(C)(C)CCC[C@@](C)(O)[C@H]1CC[C@]2(C)[C@@H]1[C@H](OC(=O)/C=C/c1ccc(Cl)cc1)C[C@@H]1[C@@]3(C)CC[C@H](OC(=O)/C=C/c4ccc(Cl)cc4)C(C)(C)[C@@H]3CC[C@]12C", "values": [
      {"measurement": "IC50", "setting": "HepG2", "result": "> 50", "unit": "µM"},
      {"measurement": "IC50", "setting": "DU-145", "result": "> 50", "unit": "µM"},
      {"measurement": "IC50", "setting": "BGC-823", "result": "> 50", "unit": "µM"},
      {"measurement": "IC50", "setting": "PC-3", "result": "> 50", "unit": "µM"},
      {"measurement": "IC50", "setting": "MCF7", "result": "> 50", "unit": "µM"}
    ]},
    {"smiles": "COC(C)(C)CCC[C@@](C)(O)[C@H]1CC[C@]2(C)[C@@H]1[C@H](O)C[C@@H]1[C@@]3(C)CC[C@H](OC(=O)c4ccccc4I)C(C)(C)[C@@H]3CC[C@]12C", "values": [
      {"measurement": "IC50", "setting": "HepG2", "result": 39.2, "unit": "µM"},
      {"measurement": "IC50", "setting": "DU-145", "result": 28.1, "unit": "µM"},
      {"measurement": "IC50", "setting": "BGC-823", "result": 28.7, "unit": "µM"},
      {"measurement": "IC50", "setting": "PC-3", "result": 46.5, "unit": "µM"},
      {"measurement": "IC50", "setting": "MCF7", "result": 33.4, "unit": "µM"}
    ]},
    {"smiles": "O=c1[nH]cc(F)c(=O)[nH]1", "note": "[FLUOROURACIL]", "values": [
      {"measurement": "IC50", "setting": "DU-145", "result": 25.3, "unit": "µM"},
      {"measurement": "IC50", "setting": "BGC-823", "result": 24.8, "unit": "µM"},
      {"measurement": "IC50", "setting": "PC-3", "result": 23.1, "unit": "µM"},
      {"measurement": "IC50", "setting": "MCF7", "result": 22.6, "unit": "µM"}
    ]}
  ]
}
